We go through 79 molecules from a melting point compilation (Tetko et al.).

Consider `O=C(O)c1ccc(C(=O)O)c(Br)c1`, for which the melting point was 295 to 297 °C.
As to `CC(=O)N(c1ccc(C)cc1)c1nc(CCl)cs1`, the melting point was 124 to 125 °C.
For `Cc1ccccc1C1Cc2ccccc2C(O)O1` (centres undefined), the melting point fell in the range of 100 to 109 °C.
`O=Cc1ccc(-c2ccc(C=O)cc2)cc1` gave a melting point of 148 °C.
Take `Cc1cc[nH]n1`: the melting point worked out at 36.5 °C.
On to `COC(=O)C1CC(=O)C(C(=O)OC)CC1=O` (centres undefined), for which the melting point was 154 to 157 °C.
Then `S=c1[nH]ccn1-c1ccc(Br)cc1`, with 244 to 246 °C.
Consider `N#C/C(=C\c1cccnc1)c1nc2ccccc2[nH]1`, for which the melting point was found to be 228 °C.
For `CC12C=C(C(=O)Oc3ccccc3)C(CC1)C2(C)C` (centres undefined) the value was 64 °C.
For `Clc1cc(Cl)c2oc3c(Cl)c(Cl)cc(Cl)c3c2c1` the value was 204 °C.
As for `CC12CCC(C(C(Br)N(O)c3ccccc3)C1=O)C2(C)C` (centres undefined), the melting point came out at 121 °C.
`CC(C)CC(N)CC(=O)O` (centres undefined) showed a melting point of 249 to 250 °C.
Turning to `c1cc2c(nn1)CCc1nonc1-2`, the melting point lay in the range of 108 to 110 °C.
`O=S(=O)(O)NC1CCCCC1` returned a melting point of 170 °C.
Regarding `CC1(C)Cc2cccc(C=O)c2O1`, the melting point was 81 to 83 °C.
In turn, `Cc1onc(-c2ccccc2)c1CO` gave a melting point of 81 to 82 °C.
Then `CC(=O)OC1CCC2C3CCC4CC=CCC4(C)C3CCC12C` (centres undefined), with 93 to 94 °C; and `Cc1ccccc1S(=O)(=O)Cl`, with 10 °C.
For `CCCCCOc1ccc(C(=O)O)cc1`, the melting point was in the range of 123 to 127 °C.
For `CC1=C(C(=O)OCCC(C)C)C(c2ccco2)NC(=O)N1` (centres undefined), the melting point was 176 °C.
On to `COc1c(C)c(C)c(OC)c(C=O)c1C`, for which the melting point stood at 86 °C.
In turn, `O=C1C=CC(=O)N1c1ccc(-c2nc3ccccc3o2)cc1` returned a melting point of 211 to 213 °C.
For `Cc1cc(N)c([N+](=O)[O-])cc1C` the value was 141 °C; for `C[Si](C)(C)c1cnc([Si](C)(C)C)s1`, 55 °C.
For `CC(=O)CCc1oc2c([N+](=O)[O-])cccc2c1-c1ccc(C)o1` the value was 103 °C.
`O=C(O)C(=O)Nc1ccccc1` displayed a melting point of 150 °C.
`Cc1cc2c(o1)-c1c(oc3ccc(Cl)cc13)CCC2(C)c1ccccc1` (centres undefined) had a melting point of 128 °C.
`C/C=C/C(=O)N1C(=O)OC[C@@H]1C(C)C` had a melting point of 56 °C.
In turn, `Cc1ccc(C)c(C=Cc2ccc(-c3ccc(C=Cc4cc(C)ccc4C)cc3)cc2)c1` came in with a melting point of 198 °C.
Then `CC(=O)CC(c1ccco1)c1c(O)c2ccccc2oc1=O` (centres undefined), with 124 °C; and `CON=C(C(=O)OC)c1ccccc1COc1ccccc1C`, with 102 °C.
The molecule `Clc1ncnc2sc3c(c12)CCCCC3` yielded a melting point of 64 to 65 °C.
On to `O=[N+]([O-])c1cccc2nsnc12`, for which the melting point was 106 to 110 °C.
`Cc1cc2ccccc2cc1C`: the melting point was determined as 105 °C.
Turning to `Cc1ccc(C)c2c1C(=O)c1ccccc1C2=O`, the melting point was found to be 140 °C.
As for `NC(=O)C(Br)(Br)C(N)=O`, the melting point was found to be 205 °C.
`Nc1c(Cl)cncc1Cl`: the melting point is 161 °C.
As to `O=C(O)c1cscc1Sc1ccc(Cl)cc1`, the melting point lay within 195 to 198 °C.
`N#Cc1coc2ccccc2c1=O`: the melting point was in the range of 174 to 178 °C.
`CCN(CC)c1ccc2cc(-c3nc4ccccc4s3)c(=O)oc2c1` came in with a melting point of 205 to 208 °C.
Take `Cc1nc(-c2cccc(S(=O)(=O)Cl)c2)cs1`: the melting point was in the range of 116 to 118 °C.
In the case of `O=C(O)C=Cc1ccc([N+](=O)[O-])cc1`, the melting point is 289 °C.
`O=C(O)C(O)c1cccc(F)c1` (centres undefined) gave a melting point of 96 °C.
Molecule `Nc1c(Br)cc(Br)cc1C=O` yielded a melting point of 136 to 139 °C.
`Cc1cc(Cl)ccc1NC(=S)N(C)C` gave a melting point of 175 °C.
As to `Clc1ccc(Cl)c(Cl)c1`, the melting point is 17 °C.
For `CC(C)(O)c1ccc(-c2ccccc2)cc1`, the melting point worked out at 91.5 °C.
`FC(F)=C(F)Cl` had a melting point of -109 °C.
Then `CC(C)(C)OC(=O)NCCCC[C@H](NC(=O)OCC1c2ccccc2-c2ccccc21)C(=O)O`, with 134 to 137 °C.
Regarding `COc1cccc(N)c1C(=O)O`, the melting point was determined as 85 °C.
As to `OCc1cccc(COc2ccccc2)c1`, the melting point was 58 to 60 °C.
As for `CCCCCCCC(O)CC` (centres undefined), the melting point was -5 °C.
For `Oc1cc(C(F)(F)F)nc2ccc(Cl)cc12` the value was 280 to 289 °C.
For `CCOC(=O)c1cn(-c2ccc(F)cc2F)c2nc(Cl)c(F)cc2c1=O`, the melting point lay within 212 to 215 °C.
Turning to `COc1c(OC)c(OC(C)=O)c2cc(Cl)ccc2c1OC(C)=O`, the melting point turned out to be 91.5 °C.
For `c1ccc(CCc2ccccn2)cc1` the value was -3 °C; for `CC(=O)NC(=Cc1ccccc1)C(=O)O`, 192 °C.
As to `COC(=O)c1cc(OCc2ccccc2)cc(OCc2ccccc2)c1`, the melting point fell in the range of 67 to 70 °C.
Molecule `N[C@@H](CSCc1ccccc1)C(=O)O` had a melting point of 209 to 214 °C.
With `CN(N=Cc1ccc(F)cc1)P(=O)(N1CC1)N1CC1`, the melting point was 106 °C.
For `O=C(c1ccc2ccccc2c1)c1noc(-c2ccc3ccccc3c2)c1S(=O)(=O)c1ccccc1` the value was 120 °C; for `Cc1cc(C)c2c(=O)n(C)c(S)nc2n1`, 234 to 236 °C.
`N#CCc1cc(F)cc(F)c1` showed a melting point of 35 °C.
As for `Cc1ccccc1C=CC(=O)O`, the melting point lay within 175 to 177 °C.
`O=C1CCCCCN1Cc1ccccc1` gave a melting point of 56 to 57 °C.
In turn, `Cc1o[nH]c(=O)c1CC(N)C(=O)O` (racemic) registered a melting point of 240 to 252 °C.
Consider `OCC1OC(OC2C(CO)OC(O)(CO)C2O)C(O)C(O)C1O` (centres undefined), for which the melting point is 176 °C.
Then `CC(=NOCc1cccc(C(=O)O)c1)c1ccc(Cl)c(Cl)c1`, with 175 to 178 °C.
With `CC(=O)CCc1oc2ccccc2c1-c1ccc(C)o1`, the melting point was found to be 54 °C.
In turn, `Cn1nnc2c1ccc(=O)n2C1OC(CO)C(O)C1O` (centres undefined) had a melting point of 211 °C.
As for `CC(=O)C1C(=O)C2(C)CCC1C2(C)C` (centres undefined), the melting point worked out at 201 °C.
`O=C1OC(c2ccccc2)=NC1=Cc1ccc(Cl)cc1` registered a melting point of 192 to 193 °C.
As to `CN(C)c1ccc(N=c2cc(-c3ccccc3)sc(-c3ccccc3)c2)cc1`, the melting point is 165 °C.
In turn, `C=CCOC1=NS(=O)(=O)c2ccccc21` yielded a melting point of 138 °C.
In turn, `CC(=O)Nc1ccc(Cl)cc1[N+](=O)[O-]` displayed a melting point of 98 °C.
`O=Nc1c(O)ccc2ccccc12` gave a melting point of 110 °C.
`O=C1CCCO1`: the melting point was -43.3 °C.
As to `O=C(CCl)N[C@@H](Cc1ccc(O)cc1)C(=O)O`, the melting point was in the range of 153 to 154 °C.
Then `CC(C)(C)OC(=O)N[C@@H](Cc1ccccc1)C(=O)O`, with 85 to 88 °C.

A word on the melting point: it is the temperature of the solid-liquid transition.
